Measured values as given in patent publication US20160158200A1, “Combinations of Hepatitis C Virus Inhibitors” (priority 2013, published 2016).

Each compound was assayed on HCV genotype-1a variant with glutamine 30 changed to glutamate in the NS5A protein. Details: test compound titrated with BMS-790052 fixed at 200 nM; genotype 1a Q30E replicon.
Assay type: cell-based
From the text: The NS5A synergistic inhibitory effect of test compounds can be determined using various amounts of an NS5A-targeting compound with titration of a second compound of interest. […] In one embodiment, the HCV genotype strain can be genotype 1a containing a change at amino acid 30 of the NS5A protein consisting of glutamine to glutamate. The test compound can be chosen from compounds listed above or from others present in the literature.
For `CC1([C@H](NC(=O)C2(N3CCC(F)(F)CC3)COC2)c2nc(-c3ccc(-c4ccc(-c5c[nH]c([C@@H](NC(=O)C6(N7CCC(F)(F)CC7)COC6)C6(C)CC6)n5)cc4)cc3)c[nH]2)CC1` [Compound W-62], the “Fold-Synergistic 1a (Q30E)” value was over 100 fold.
`COCC1(C(=O)N[C@H](c2ncc(-c3ccc(-c4ccc(-c5cnc([C@@H](NC(=O)C6(COC)CCC6)C(C)C)[nH]5)cc4)cc3)[nH]2)C(C)C)CCC1` [Compound P-74] was tested, and the “Fold-Synergistic 1a (Q30E)” value was over 100 fold.
`CC(C)(C)OC(=O)N1CCCCC1(C)C(=O)N[C@H](c1nc(-c2ccc(-c3ccc(-c4c[nH]c([C@@H](NC(=O)C5(C)CCCCN5C(=O)OC(C)(C)C)C(C)(C)C)n4)cc3)cc2)c[nH]1)C(C)(C)C` (single isomer, unassigned) [Compound L-46c] was tested, and the “Fold-Synergistic 1a (Q30E)” value was over 100 fold.
In the case of `CC(C)[C@H](NC(=O)CC(C)(C)C)c1ncc(-c2ccc(-c3ccc(-c4cnc([C@@H](NC(=O)CC(C)(C)C)C(C)C)[nH]4)cc3)cc2)[nH]1` [Compound P-56], the “Fold-Synergistic 1a (Q30E)” value is reported as over 100 fold.
`CC1(C(NC(=O)C2(O)CCC(F)(F)CC2)c2nc(-c3ccc(-c4ccc(-c5c[nH]c(C(NC(=O)C6(O)CCC(F)(F)CC6)C6(C)CC6)n5)cc4)cc3)c[nH]2)CC1.O=C(O)C(F)(F)F.O=C(O)C(F)(F)F` (stereo not drawn) [Compound P-151] was tested, and the “Fold-Synergistic 1a (Q30E)” value was over 100 fold.
For `CC(C)[C@H](NC(=O)c1cc2ccccc2o1)c1ncc(-c2ccc(-c3ccc(-c4cnc([C@@H](NC(=O)c5cc6ccccc6o5)C(C)C)[nH]4)cc3)cc2)[nH]1` [Compound S-87], the “Fold-Synergistic 1a (Q30E)” value was over 100 fold.
For `CC(C)[C@H](NC(=O)CC1CCCCCC1)c1ncc(-c2ccc(-c3ccc(-c4cnc([C@@H](NC(=O)CC5CCCCCC5)C(C)C)[nH]4)cc3)cc2)[nH]1` [Compound S-56], the “Fold-Synergistic 1a (Q30E)” value was over 100 fold.
In the case of `CC(C)(C)OC(=O)NC1(C(=O)N[C@H](c2nc(-c3ccc(-c4ccc(-c5c[nH]c([C@@H](NC(=O)C6(NC(=O)OC(C)(C)C)CCC(=O)CC6)C(C)(C)C)n5)cc4)cc3)c[nH]2)C(C)(C)C)CCC(=O)CC1` [Compound W-233], the “Fold-Synergistic 1a (Q30E)” value is reported as over 100 fold.
For `CCCOC(=O)N1CCC[C@H]1c1ncc(-c2ccc(-c3ccc(-c4cnc([C@@H]5CCCN5C(=O)OCCC)[nH]4)cc3)cc2)[nH]1` [Compound S-218], the “Fold-Synergistic 1a (Q30E)” value was over 10 fold.
In the case of `CC(C)[C@H](NC(=O)N(C)C)c1nc(-c2ccc(-c3ccc(-c4c[nH]c([C@@H](NC(=O)N(C)C)C(C)C)n4)cc3)cc2)c[nH]1` [Compound S-228], the “Fold-Synergistic 1a (Q30E)” value is reported as over 100 fold.
For `CC(C)(C)[C@H](NC(=O)C(C)(C)N1CCOCC1)c1nc(-c2ccc(-c3ccc(-c4c[nH]c([C@@H](NC(=O)C(C)(C)N5CCOCC5)C(C)(C)C)n4)cc3)cc2)c[nH]1` [Compound Q-7], the “Fold-Synergistic 1a (Q30E)” value was over 100 fold.
For `CC(C)[C@H](NC(=O)C1CCC(F)(F)CC1)c1ncc(-c2ccc(-c3ccc(-c4cnc([C@@H](NC(=O)C(C)(C)C)C(C)C)[nH]4)cc3)cc2)[nH]1` [Compound Y-52], the “Fold-Synergistic 1a (Q30E)” value was over 100 fold.
`Cc1ncoc1C(=O)N[C@H](c1ncc(-c2ccc(-c3ccc(-c4cnc([C@@H](NC(=O)c5ocnc5C)C(C)C)[nH]4)cc3)cc2)[nH]1)C(C)C` [Compound P-93] was tested, and the “Fold-Synergistic 1a (Q30E)” value was over 100 fold.
For `CC(O)(CC1CC1)C(=O)N[C@H](c1nc(-c2ccc(-c3ccc(-c4cnc([C@@H](NC(=O)C(C)(O)CC5CC5)C(C)(C)C)[nH]4)cc3)cc2)c[nH]1)C(C)(C)C` (stereo partly drawn) [Compound B-162], the “Fold-Synergistic 1a (Q30E)” value was over 100 fold.
With `CC(C)CC(=O)NC(C)(C)c1ncc(-c2ccc(-c3ccc(-c4cnc(C(C)(C)NC(=O)CC(C)C)[nH]4)cc3)cc2)[nH]1.O=C(O)C(F)(F)F.O=C(O)C(F)(F)F` [Compound N-26] the “Fold-Synergistic 1a (Q30E)” value was under 10 fold.
In the case of `CC1(C)CCCC(C)(C(=O)N[C@H](c2nc(-c3ccc(-c4ccc(-c5c[nH]c([C@@H](NC(=O)C6(C)CCCC(C)(C)O6)C(C)(C)C)n5)cc4)cc3)c[nH]2)C(C)(C)C)O1` (single isomer, unassigned) [Compound W-168], the “Fold-Synergistic 1a (Q30E)” value is reported as over 10 fold.
With `COc1cccc2c(C(=O)N3[C@@H]4C[C@@H]4C[C@H]3c3ncc(-c4ccc(-c5ccc(-c6cnc([C@@H]7C[C@H]8C[C@H]8N7C(=O)c7nc(Cl)cc8c(OC)cccc78)[nH]6)cc5)cc4)[nH]3)nc(Cl)cc12` [Compound P-49] the “Fold-Synergistic 1a (Q30E)” value was over 100 fold.
For `CC(C)(C)OC(=O)N1CCCC1C(=O)NC(c1nc(-c2ccc(-c3ccc(-c4c[nH]c(C(NC(=O)C5CCCN5C(=O)OC(C)(C)C)C(C)(C)C)n4)cc3)cc2)c[nH]1)C(C)(C)C` (stereo not drawn) [Compound W-87], the “Fold-Synergistic 1a (Q30E)” value was over 100 fold.
`CC(C)[C@H](NC(=O)C(C)(C)C(O)C1CC(F)(F)C1)c1nc(-c2ccc(-c3ccc(-c4c[nH]c([C@@H](NC(=O)C(C)(C)C(O)C5CC(F)(F)C5)C(C)C)n4)cc3)cc2)c[nH]1` (single isomer, unassigned) [Compound N-145B] was tested, and the “Fold-Synergistic 1a (Q30E)” value was over 100 fold.
`C[C@@H]1CN(C(=O)C(=O)N[C@H](c2nc(-c3ccc(-c4ccc(-c5c[nH]c([C@@H](NC(=O)C(=O)N6C[C@@H](C)O[C@@H](C)C6)C6(C)CC6)n5)cc4)cc3)c[nH]2)C2(C)CC2)C[C@H](C)O1` [Compound W-61] was tested, and the “Fold-Synergistic 1a (Q30E)” value was over 100 fold.
For `CC(C)(C(=O)N[C@H](c1nc(-c2ccc(-c3ccc(-c4c[nH]c([C@@H](NC(=O)C(C)(C)C(O)c5ccccn5)C(C)(C)C)n4)cc3)cc2)c[nH]1)C(C)(C)C)C(O)c1ccccn1` (single isomer, unassigned) [Compound N-128A], the “Fold-Synergistic 1a (Q30E)” value was over 100 fold.
With `CC(C)(C)C(NC(=O)C(O)C1CCCCC1)c1nc(-c2ccc(-c3ccc(-c4c[nH]c(C(NC(=O)C(O)C5CCCCC5)C(C)(C)C)n4)cc3)cc2)c[nH]1` [Compound L-74] the “Fold-Synergistic 1a (Q30E)” value was over 100 fold.
In the case of `CCOC(C)(C)C(=O)N[C@H](c1nc(-c2ccc(-c3ccc(-c4c[nH]c([C@@H](NC(=O)C(C)(C)OCC)C(C)(C)C)n4)cc3)cc2)c[nH]1)C(C)(C)C` [Compound P-26], the “Fold-Synergistic 1a (Q30E)” value is reported as over 100 fold.
`CC(C)(C(=O)N[C@H](c1nc(-c2ccc(-c3ccc(-c4c[nH]c([C@@H](NC(=O)C(C)(C)C(O)c5ccccc5)C(C)(C)C)n4)cc3)cc2)c[nH]1)C(C)(C)C)C(O)c1ccccc1` (single isomer, unassigned) [Compound N-127A] was tested, and the “Fold-Synergistic 1a (Q30E)” value was over 100 fold.
With `CC(C)(C)[C@H](NC(=O)C1(CO)CCC(F)(F)CC1)c1nc(-c2ccc(-c3ccc(-c4c[nH]c([C@@H](NC(=O)C5(CO)CCC(F)(F)CC5)C(C)(C)C)n4)cc3)cc2)c[nH]1` [Compound P-37] the “Fold-Synergistic 1a (Q30E)” value was over 100 fold.
`CC(C)[C@H](NC(=O)c1cc(Cl)cs1)c1ncc(-c2ccc(-c3ccc(-c4cnc([C@@H](NC(=O)c5cc(Cl)cs5)C(C)C)[nH]4)cc3)cc2)[nH]1` [Compound P-90] was tested, and the “Fold-Synergistic 1a (Q30E)” value was over 100 fold.
In the case of `COC(CO)(CC(C)C)C(=O)N[C@H](c1nc(-c2ccc(-c3ccc(-c4c[nH]c([C@@H](NC(=O)C(CO)(CC(C)C)OC)C(C)(C)C)n4)cc3)cc2)c[nH]1)C(C)(C)C` (single isomer, unassigned) [Compound N-160C], the “Fold-Synergistic 1a (Q30E)” value is reported as over 100 fold.
`CCOC(=O)N[C@H](c1ncc(-c2ccc(-c3ccc(-c4cnc([C@@H](NC(=O)OCC)C(C)C)[nH]4)cc3)cc2)[nH]1)C(C)C` [Compound S-207] was tested, and the “Fold-Synergistic 1a (Q30E)” value was over 10 fold.
`CC(C)(F)C(NC(=O)C1CCC(F)(F)CC1)c1nc(-c2ccc(-c3ccc(-c4c[nH]c(C(NC(=O)C5CCC(F)(F)CC5)C(C)(C)F)n4)cc3)cc2)c[nH]1` (single isomer, unassigned) [Compound N-106A] was tested, and the “Fold-Synergistic 1a (Q30E)” value was over 100 fold.
With `CC(C)(C)C(=O)C(=O)N[C@H](c1nc(-c2ccc(-c3ccc(-c4c[nH]c([C@@H](NC(=O)C(=O)C(C)(C)C)C(C)(C)C)n4)cc3)cc2)c[nH]1)C(C)(C)C` [Compound W-238] the “Fold-Synergistic 1a (Q30E)” value was over 100 fold.
For `CC(C)(C)[C@H](NC(=O)C1(CO)CCCO1)c1nc(-c2ccc(-c3ccc(-c4c[nH]c([C@@H](NC(=O)C5(CO)CCCO5)C(C)(C)C)n4)cc3)cc2)c[nH]1` (single isomer, unassigned) [Compound Y-111], the “Fold-Synergistic 1a (Q30E)” value was over 100 fold.
With `CC(C)[C@H](NC(=O)c1ccccc1C(F)(F)F)c1ncc(-c2ccc(-c3ccc(-c4cnc([C@@H](NC(=O)c5ccccc5C(F)(F)F)C(C)C)[nH]4)cc3)cc2)[nH]1` [Compound S-69] the “Fold-Synergistic 1a (Q30E)” value was over 100 fold.
For `Cc1ccccc1CC(=O)N[C@H](c1ncc(-c2ccc(-c3ccc(-c4cnc([C@@H](NC(=O)Cc5ccccc5C)C(C)C)[nH]4)cc3)cc2)[nH]1)C(C)C` [Compound S-39], the “Fold-Synergistic 1a (Q30E)” value was over 100 fold.
`COC1(C(=O)N[C@H](c2nc(-c3ccc(-c4ccc(-c5c[nH]c([C@@H](NC(=O)C6(OC)CC6)C(C)(C)C)n5)cc4)cc3)c[nH]2)C(C)(C)C)CC1` [Compound P-27] was tested, and the “Fold-Synergistic 1a (Q30E)” value was over 100 fold.
In the case of `CO[C@@H](C(=O)N[C@H](c1ncc(-c2ccc(-c3ccc(-c4cnc([C@@H](NC(=O)[C@H](OC)c5ccccc5)C(C)C)[nH]4)cc3)cc2)[nH]1)C(C)C)c1ccccc1` [Compound P-75], the “Fold-Synergistic 1a (Q30E)” value is reported as over 100 fold.
For `COC(=O)N(C)C1(C(=O)N[C@H](c2ncc(-c3ccc(-c4cc5ccc(-c6cnc([C@@H](NC(=O)C7(N(C)C(=O)OC)CC7)C(C)(C)C)[nH]6)cc5o4)cc3)[nH]2)C(C)(C)C)CC1.O=C(O)C(F)(F)F` [Compound B63], the “Fold-Synergistic 1a (Q30E)” value was over 10 fold.
In the case of `CC(C)[C@H](NC(=O)c1ccccc1)c1ncc(-c2ccc(-c3ccc(-c4cnc([C@@H](NC(=O)c5ccccc5)C(C)C)[nH]4)cc3)cc2)[nH]1` [Compound S-5], the “Fold-Synergistic 1a (Q30E)” value is reported as over 100 fold.
In the case of `COC(C)(CCOCc1ccccc1)C(=O)N[C@H](c1nc(-c2ccc(-c3ccc(-c4c[nH]c([C@@H](NC(=O)C(C)(CCOCc5ccccc5)OC)C(C)(C)C)n4)cc3)cc2)c[nH]1)C(C)(C)C` (single isomer, unassigned) [Compound W-256b], the “Fold-Synergistic 1a (Q30E)” value is reported as over 100 fold.
With `CC(C)C(c1ncc(-c2ccc(-c3ccc(-c4cnc(C(C(C)C)N5CCCCC5=O)[nH]4)cc3)cc2)[nH]1)N1CCCCC1=O` (stereo not drawn) [Compound P-52] the “Fold-Synergistic 1a (Q30E)” value was over 10 fold.
